According to patent publication US6372748B1, “Fungicide mixtures based on pyridine amides and fenarimol” (BASF Aktiengesellschaft, priority 1997, dated 2002):

System: Puccinia recondita
Test: Curative activity against Puccinia recondita on wheat (wheat leaf rust)
Format: in vivo, Puccinia recondita on wheat seedlings of the variety Kanzler
Conditions: sprayed 1 day after inoculation, rated after 7 days
Method: The active ingredients, separately or together, are formulated as a 10% emulsion in a mixture of 63% by weight of cyclohexanone and 27% by weight of emulsifier, and diluted with water to the desired concentration.
Evaluation is carried out by determining the infected leaf areas in percent. These percentages are converted into efficacies. The efficacy (w) is calculated as follows using Abbot's formula: […]
α corresponds to the fungal infection of the treated plants in % and β corresponds to the fungal infection of the untreated (control) plants in % An efficacy of 0 means that the infection level of the treated plants corresponds to that of the untreated control plants; an efficacy of 100 means that the treated plants were not infected.
The expected efficacies of the mixtures of the active ingredients were determined using Colby's formula [R. S. Colby, Weeds 15, 20-22 (1967)] and compared with the observed efficacies.
Colby's formula: E=x+y−x·y/100
E expected efficacy, expressed in % of the untreated control, when using the mixture of the active ingredients A and B at the concentrations a and b x efficacy, expressed in % of the untreated control, when using active ingredient A at a concentration of a y efficacy, expressed in % of the untreated control, when using active ingredient B at a concentration of b Leaves of potted wheat seedlings of the variety “Kanzler” were dusted with spores of leaf rust (Puccinia recondite). Thereafter, the pots were kept for 24 hours in a chamber of high atmospheric humidity (90 to 95%) and 20 to 22° C. During this time, the spores germinated and the germinal tubes penetrated into the leaf tissue. The next day, the infected plants were sprayed to runoff point with an aqeuous formulation of active ingredient prepared from a stock solution consisting of 10% of active ingredient, 63% of cyclohexanone and 27% of emulsifier. After the spray coating had dried on, the test plants were cultivated in a greenhouse at from 20 to 22° C. and from 65 to 70% of relative atmospheric humidity for 7 days. Thereafter, the extent of rust fungus development on the leaves was determined.

[1] = 50 ppm active ingredient in the spray liquor
[2] = 100 ppm active ingredient in the spray liquor

SMILES | Efficacy in % of the untreated control (10 ppm active ingredient in the spray liquor) [%] | Efficacy in % of the untreated control (20 ppm active ingredient in the spray liquor) [%] | Efficacy in % of the untreated control [1] [%] | Efficacy in % of the untreated control [2] [%] | Efficacy in % of the untreated control (200 ppm active ingredient in the spray liquor) [%]
OC(c1ccc(Cl)cc1)(c1cncnc1)c1ccccc1Cl (racemic) [Compound II, (±)-(2-Chlorophenyl)(4-chlorophenyl)(pyrimidin-5-yl)methanol, reference compound] | 10 | 20 | – | – | –
O=C(Nc1ccccc1-c1ccc(F)cc1)c1cccnc1Cl [Compound I.1] | – | – | 0 | 0 | 0
O=C(Nc1ccccc1-c1ccc(Cl)cc1)c1cccnc1Cl [Compound I.2] | – | – | 0 | 30 | –
